Reference: the NIST ThermoML archive (doi:10.1016/j.jct.2014.05.008)
± gives the expanded uncertainty stated by the source.

Conditions: 101.33 kPa, Liquid; for mass density: Vibrating tube method; for thermal conductivity: hot wire

CCCC[N+]1(C)CCCC1.N#CN=C=[N-] [1-butyl-1-methylpyrrolidinium dicyanamide]
Conditions | mass density [kg/m3] | thermal conductivity [W/m/K]
293.2 K | 1018.3 ± 0.9 | –
293.5 K | – | 0.155 ± 0.011
303.2 K | 1011.8 ± 0.9 | 0.155 ± 0.011
313.2 K | 1006.1 ± 0.9 | –
313.3 K | – | 0.153 ± 0.011
323.2 K | 1000.6 ± 0.8 | –
323.3 K | – | 0.151 ± 0.011
333.2 K | 995.6 ± 0.8 | 0.147 ± 0.011
343.2 K | 991.3 ± 0.8 | –
343.4 K | – | 0.142 ± 0.02

CCn1cc[n+](C)c1.N#CN=C=[N-] [1-ethyl-3-methylimidazolium dicyanamide]
Conditions | mass density [kg/m3] | thermal conductivity [W/m/K]
293.2 K | 1107.5 ± 1.1 | –
293.4 K | – | 0.183 ± 0.011
303.2 K | 1100.4 ± 1.1 | –
303.3 K | – | 0.179 ± 0.011
313.1 K | – | 0.178 ± 0.02
313.2 K | 1093.5 ± 1 | –
323 K | – | 0.181 ± 0.02
323.2 K | 1087 ± 1 | –
333.2 K | 1081 ± 1 | 0.17 ± 0.02
343.2 K | 1076.1 ± 1 | –
343.4 K | – | 0.165 ± 0.02

CCCCn1cc[n+](C)c1.N#CN=C=[N-] [1-butyl-3-methylimidazolium dicyanamide]
Conditions | mass density [kg/m3] | thermal conductivity [W/m/K]
293.2 K | 1064.5 ± 1 | –
293.6 K | – | 0.167 ± 0.011
303.2 K | 1057.5 ± 1 | –
303.3 K | – | 0.166 ± 0.011
313.2 K | 1051 ± 1 | –
313.4 K | – | 0.163 ± 0.011
323.2 K | 1045.1 ± 0.9 | –
323.5 K | – | 0.163 ± 0.011
333.2 K | 1040.6 ± 0.9 | –
333.7 K | – | 0.153 ± 0.011
343.2 K | 1035.7 ± 0.9 | –
344.2 K | – | 0.15 ± 0.011
